Values of other authors as cited in patent US20080113949A1, “Use of dipyridamole in combination with acetylsalicylic acid and an angiotensin II antagonist for stroke prevention” (priority 2003, published 2008).

Conditions: clinical study ESPS-2; compared with aspirin

OCCN(CCO)c1nc(N2CCCCC2)c2nc(N(CCO)CCO)nc(N3CCCCC3)c2n1 [dipyridamole, 2,6-bis(diethanolamino)-4,8-dipiperidino-pyrimido[5,4-d]pyrimidine]
reduction of stroke risk: as effective as low-dose aspirin
